Laboratory results taken from patent publication US11236086B2, “Substituted pyrrolopyridines as inhibitors of activin receptor-like kinase” (BLUEPRINT MEDICINES CORPORATION, priority 2017, dated 2022).

Target: T1, ALK2R206H (mutant ALK2, N-terminally tagged with GST) (Homo sapiens, UniProt Q04771, R206H)
T1 construct: purchased Carna Bioscience or ThermoFisher 09-148 or PV6232
T1 sequence (Q04771 21-509 R206H): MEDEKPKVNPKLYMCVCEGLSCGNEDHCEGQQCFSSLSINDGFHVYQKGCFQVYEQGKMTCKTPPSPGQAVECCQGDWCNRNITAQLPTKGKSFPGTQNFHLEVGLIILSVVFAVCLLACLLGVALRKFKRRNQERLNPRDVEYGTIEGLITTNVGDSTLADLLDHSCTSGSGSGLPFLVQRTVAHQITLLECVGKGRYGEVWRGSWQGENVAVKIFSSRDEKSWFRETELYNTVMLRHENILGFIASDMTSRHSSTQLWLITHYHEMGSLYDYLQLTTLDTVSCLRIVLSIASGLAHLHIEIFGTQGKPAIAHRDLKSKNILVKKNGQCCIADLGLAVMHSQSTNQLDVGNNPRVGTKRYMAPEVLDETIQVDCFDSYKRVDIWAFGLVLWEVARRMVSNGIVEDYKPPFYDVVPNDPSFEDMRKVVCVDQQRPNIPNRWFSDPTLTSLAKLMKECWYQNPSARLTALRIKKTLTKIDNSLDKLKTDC
Experiment: ALK binding assay (LANTHASCREEN TR-FRET competitive binding, displacement of Kinase Tracer 178)
Details: read-out: Binding Assay (IC50 class)
How it was run: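 Competitive displacement of Kinase Tracer 178 (50 nM) from N-terminally GST-tagged mutant ALK2 R206H (2-5 nM) by compound, detected by TR-FRET with Eu-anti-GST antibody (4-10 nM). 30 min room temperature incubation, 1% DMSO final; normalized signal fitted to 4-parameter log dose response for IC50.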

| Compound | IC50 [nM] |
| --- | --- |
| CC(=O)N1CCc2nc(-c3cc4c(N5CCN(C(=O)OC6COC6)CC5)ccnc4[nH]3)sc2C1 [Compound 447] | ≤ 10 |
| O=C(C1CC1)N1CCN(c2ccnc3[nH]c(-c4ccc(C5CCNCC5F)cc4)cc23)CC1 (centres unmarked) [Compound 389] | ≤ 10 |
| CCN1CCN(c2ccc(-c3cc4c(N5CCN(C(=O)C6CC6)CC5)ccnc4[nH]3)c(OC(F)(F)F)c2)CC1 [Compound 477] | ≤ 10 |
| O=C(C1CC1)N1CCN(c2ccnc3[nH]c(-c4ccc(C5CCN(C6COC6)CC5)cc4)cc23)CC1 [Compound 451] | ≤ 10 |
| Cc1nc(-c2cc3c(N4CCN(C(=O)O[C@H]5C[C@H](F)C5)CC4)ccnc3[nH]2)sc1C [Compound 323] | ≤ 10 |
| O=C(C1CC1)N1CCN(c2ccnc3[nH]c(-c4ccc(C5(O)CCC5)cc4)cc23)CC1 [Compound 272] | ≤ 10 |
| O=C(O[C@H]1C[C@H](F)C1)N1CCN(c2ccnc3[nH]c(-c4nc5c(s4)COCC5)cc23)CC1 [Compound 416] | ≤ 10 |
| O=C(OC1CC1)N1CCN(c2ccnc3[nH]c(-c4nc5c(s4)COCC5)cc23)CC1 [Compound 311] | ≤ 10 |
| Cc1cnc(-c2cc3c(N4CCN(C(=O)C5CC5)CC4)ccnc3[nH]2)s1 [Compound 34] | ≤ 10 |
| Cc1csc(-c2cc3c(N4CCN(C(=O)C5CC5)CC4)ccnc3[nH]2)n1 [Compound 35] | ≤ 10 |
| Cc1csc(-c2cc3c(N4CCN(C(=O)OC5COC5)CC4)ccnc3[nH]2)c1 [Compound 167] | ≤ 10 |
| O=C(C1CC1)N1CCN(c2ccnc3[nH]c(-c4ccc(C5CCOC5)cc4)cc23)CC1 (centres unmarked) [Compound 270] | ≤ 10 |

Continued, values first:

| IC50 [nM] | Compound |
| --- | --- |
| ≤ 10 | CC(C)n1cnc(-c2[nH]c3nccc(N4CCN(C(=O)OC5COC5)CC4)c3c2C#N)c1 [Compound 350] |
| ≤ 10 | CCC(C)OC(=O)N1CCN(c2ccnc3[nH]c(-c4cnn(C)c4)cc23)CC1 (centres unmarked) [Compound 98] |
| ≤ 10 | COc1nc(-c2cc3c(N4CCN(C(=O)OC5COC5)CC4)ccnc3[nH]2)cs1 [Compound 259] |
| ≤ 10 | Cn1cc(-c2cc3c(N4CCN(C(=O)O[C@H]5COC[C@@H]5F)CC4)ccnc3[nH]2)cn1 [Compound 254] |
| ≤ 10 | Cn1cc(-c2cc3c(N4CCN(C(=O)C5CC5)CC4)ccnc3[nH]2)cn1 [Compound 6] |
| ≤ 10 | Cn1cc(-c2[nH]c3nccc(N4CCN(C(=O)OC5COC5)CC4)c3c2C#N)cn1 [Compound 207] |
| ≤ 10 | Cn1cc(-c2[nH]c3nccc(N4CCN(C(=O)OCC(F)F)CC4)c3c2Cl)cn1 [Compound 308] |
| ≤ 10 | CCOC(=O)N1CCN(c2ccnc3[nH]c(-c4ccccn4)c(Cl)c23)CC1 [Compound 115] |
| ≤ 10 | Cc1ncsc1-c1cc2c(N3CCN(C(=O)OC4COC4)CC3)ccnc2[nH]1 [Compound 175] |
| ≤ 10 | Cn1cc(-c2cc3c(N4CCN(C(=O)O[C@H]5C[C@H](F)C5)CC4)ccnc3[nH]2)cn1 [Compound 162] |
| ≤ 10 | O=C(OC1COC1)N1CCN(c2ccnc3[nH]c(-c4cn5c(n4)COCC5)cc23)CC1 [Compound 302] |
| ≤ 10 | Cn1cc(-c2[nH]c3nccc(N4CCN(C(=O)O[C@@H]5CCOC5)CC4)c3c2Cl)cn1 [Compound 332] |
| ≤ 10 | CC(C)(C#N)c1ccc(-c2cc3c(N4CCN(C(=O)OC5COC5)CC4)ccnc3[nH]2)nc1 [Compound 383] |
| ≤ 10 | O=C(OC1COC1)N1CCN(c2ccnc3[nH]c(-c4cnn(C5COC5)c4)cc23)CC1 [Compound 300] |
| ≤ 10 | Cn1cc(-c2cc3c(N4CCN(C(=O)[C@H]5C[C@@H]5C#N)CC4)ccnc3[nH]2)cn1 [Compound 54] |
| ≤ 10 | CC1OCC1OC(=O)N1CCN(c2ccnc3[nH]c(-c4cnn(C)c4)cc23)CC1 (centres unmarked) [Compound 155] |

Target: T2, human ALK2 R206H (Homo sapiens, UniProt Q04771, R206H)
T2 construct: expressed in transfected cells; host or cells: HEK293 (ATCC CRL1573), lentivirus transduction, blasticidin selection
T2 sequence (Q04771 21-509 R206H): T1 sequence (Q04771 21-509 R206H)
Experiment: Cell-based ALK2-R206H cell activity assay (Smad1-Ser463/Ser465 phosphorylation by AlphaLISA in HEK293-ALK2-R206H cells)
Details: phospho-Smad1 AlphaLISA, read-out: Cell Line (Cell Assay, IC50 class)
How it was run: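 IC50 comes from a 10-point curve, scaled between DMSO and 1 μM LDN193189 controls, of lysate phospho-Smad1 (Ser463/465) measured by AlphaLISA. Compounds (top 10 μM or 1 μM, 3-fold steps, duplicates) were given 2-3 h to serum-starved HEK293 cells that stably express FLAG-tagged human ALK2 R206H.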

| Compound | IC50 [nM] |
| --- | --- |
| CC(=O)N1CCc2nc(-c3cc4c(N5CCN(C(=O)OC6COC6)CC5)ccnc4[nH]3)sc2C1 [Compound 447] | ≤ 100 |
| O=C(C1CC1)N1CCN(c2ccnc3[nH]c(-c4ccc(C5CCNCC5F)cc4)cc23)CC1 (centres unmarked) [Compound 389] | ≤ 100 |
| CCN1CCN(c2ccc(-c3cc4c(N5CCN(C(=O)C6CC6)CC5)ccnc4[nH]3)c(OC(F)(F)F)c2)CC1 [Compound 477] | ≤ 100 |
| O=C(C1CC1)N1CCN(c2ccnc3[nH]c(-c4ccc(C5CCN(C6COC6)CC5)cc4)cc23)CC1 [Compound 451] | ≤ 100 |
| Cc1nc(-c2cc3c(N4CCN(C(=O)O[C@H]5C[C@H](F)C5)CC4)ccnc3[nH]2)sc1C [Compound 323] | ≤ 100 |
| O=C(C1CC1)N1CCN(c2ccnc3[nH]c(-c4ccc(C5(O)CCC5)cc4)cc23)CC1 [Compound 272] | ≤ 100 |
| O=C(O[C@H]1C[C@H](F)C1)N1CCN(c2ccnc3[nH]c(-c4nc5c(s4)COCC5)cc23)CC1 [Compound 416] | ≤ 100 |
| O=C(OC1CC1)N1CCN(c2ccnc3[nH]c(-c4nc5c(s4)COCC5)cc23)CC1 [Compound 311] | ≤ 100 |
| Cc1cnc(-c2cc3c(N4CCN(C(=O)C5CC5)CC4)ccnc3[nH]2)s1 [Compound 34] | 100 to 500 |
| Cc1csc(-c2cc3c(N4CCN(C(=O)C5CC5)CC4)ccnc3[nH]2)n1 [Compound 35] | 100 to 500 |
| Cc1csc(-c2cc3c(N4CCN(C(=O)OC5COC5)CC4)ccnc3[nH]2)c1 [Compound 167] | ≤ 100 |
| O=C(C1CC1)N1CCN(c2ccnc3[nH]c(-c4ccc(C5CCOC5)cc4)cc23)CC1 (centres unmarked) [Compound 270] | ≤ 100 |

Other lines, results leading:

| IC50 [nM] | Compound |
| --- | --- |
| ≤ 100 | CC(C)n1cnc(-c2[nH]c3nccc(N4CCN(C(=O)OC5COC5)CC4)c3c2C#N)c1 [Compound 350] |
| 100 to 500 | CCC(C)OC(=O)N1CCN(c2ccnc3[nH]c(-c4cnn(C)c4)cc23)CC1 (centres unmarked) [Compound 98] |
| 100 to 500 | COc1nc(-c2cc3c(N4CCN(C(=O)OC5COC5)CC4)ccnc3[nH]2)cs1 [Compound 259] |
| 100 to 500 | Cn1cc(-c2cc3c(N4CCN(C(=O)O[C@H]5COC[C@@H]5F)CC4)ccnc3[nH]2)cn1 [Compound 254] |
| 100 to 500 | Cn1cc(-c2cc3c(N4CCN(C(=O)C5CC5)CC4)ccnc3[nH]2)cn1 [Compound 6] |
| ≤ 100 | Cn1cc(-c2[nH]c3nccc(N4CCN(C(=O)OC5COC5)CC4)c3c2C#N)cn1 [Compound 207] |
| ≤ 100 | Cn1cc(-c2[nH]c3nccc(N4CCN(C(=O)OCC(F)F)CC4)c3c2Cl)cn1 [Compound 308] |
| ≤ 100 | CCOC(=O)N1CCN(c2ccnc3[nH]c(-c4ccccn4)c(Cl)c23)CC1 [Compound 115] |
| 100 to 500 | Cc1ncsc1-c1cc2c(N3CCN(C(=O)OC4COC4)CC3)ccnc2[nH]1 [Compound 175] |
| ≤ 100 | Cn1cc(-c2cc3c(N4CCN(C(=O)O[C@H]5C[C@H](F)C5)CC4)ccnc3[nH]2)cn1 [Compound 162] |
| ≤ 100 | O=C(OC1COC1)N1CCN(c2ccnc3[nH]c(-c4cn5c(n4)COCC5)cc23)CC1 [Compound 302] |
| 100 to 500 | Cn1cc(-c2[nH]c3nccc(N4CCN(C(=O)O[C@@H]5CCOC5)CC4)c3c2Cl)cn1 [Compound 332] |
| ≤ 100 | CC(C)(C#N)c1ccc(-c2cc3c(N4CCN(C(=O)OC5COC5)CC4)ccnc3[nH]2)nc1 [Compound 383] |
| 100 to 500 | O=C(OC1COC1)N1CCN(c2ccnc3[nH]c(-c4cnn(C5COC5)c4)cc23)CC1 [Compound 300] |
| 100 to 500 | Cn1cc(-c2cc3c(N4CCN(C(=O)[C@H]5C[C@@H]5C#N)CC4)ccnc3[nH]2)cn1 [Compound 54] |
| > 500 | CC1OCC1OC(=O)N1CCN(c2ccnc3[nH]c(-c4cnn(C)c4)cc23)CC1 (centres unmarked) [Compound 155] |
